Consider 2 molecules from patent publication US9101567B2, “Suppression of cancer growth and metastasis using nordihydroguaiaretic acid derivatives with 7-hydroxystaurosporine” (The Johns Hopkins University, priority 2010, dated 2015).

What all share (type): cell-based, human
The test system of assay [1] is BNIP3. Nature of the assay: Western blotting of BNIP3 in LNCaP cells, normoxic or hypoxic. The settings on record: normoxic or hypoxic condition, M4N 80 μM. The source says:
LNCaP human prostate cancer, DU145 human prostate cancer, PC3 human prostate cancer, MCF-7 human breast cancer, MDA-MB-231 human breast cancer, MDA-MB-468 human breast cancer, HT29 human colon cancer, K562 human myelogenous leukaemia, HepG2 human hepatoma, Hep3B human hepatoma, and LN229 human glioblastoma cancer cell lines were purchased from American Type Culture Collection (Manassas, Va.). OC24 human ascites ovarian cancer cell line was a generous gift from Dr. XXX (Johns Hopkins University, MD). LNCaP cell line was cultured in RPMI1640 medium supplemented with glucose (14 mM), pyruvate (1 mM), and fetal bovine serum (FBS) (10%). DU145 cell line was cultured in MEM supplemented with non-essential amino acids, glucose (21 mM), pyruvate (1 mM), and FBS (10%). PC3 cell line was cultured in F-12K medium supplemented with FBS (10%). MCF-7 cell line was cultured in DMEM supplemented with FBS (10%). OC24 cell line was cultured in RPMI1640 medium supplemented with FBS (10%) as suspension culture. MDA-MB-231 and 468 cell lines were cultured in Leibovitz's L15 medium supplemented with FBS (10%) under air. HT29 cell line was cultured in DMEM supplemented with glucose (25 mM) and FBS (10%). K562 cell line was cultured in RPMI1640 supplemented with FBS (10%). […] The signals were detected by western blot chemiluminescence reagent plus (New England Nuclear Life Science Products, Boston, Mass.). […]
On the technique in general: A western blot detects proteins with antibodies after separation by electrophoresis.

Assay [2] concerns LC3B-II. Description: Western blotting of LC3B-I&II (autophagy) in LNCaP cells. The following applies: 18 hrs, in the presence of Baflomycin A1 (100 nM), M4N 80 μM. How it is done: (§1) The sample volumes were adjusted by the total protein amount. Protein assay was performed by Bio-Rad Protein Assay (Bio-Rad Laboratories, Inc. Hercules, Calif.). The samples were resolved by the standard SDS-polyacrylamide gel electrophoresis and transferred to nitrocellulose membrane (Amersham Biosciences, Bjorkgatan, Sweden). The membranes were blocked with skim milk, and incubated with primary antibodies at 4° C. overnight and then with secondary antibody conjugated with horse radish peroxidase at room temperature for 2 hrs. The signals were detected by western blot chemiluminescence reagent plus (New England Nuclear Life Science Products, Boston, Mass.).

The test system of assay [3] is Beclin-1. Nature of the assay: Western blotting of Beclin-1 in LNCaP cells. The following applies: normoxic or hypoxic, 6 or 18 hr, M4N 80 μM. Here is the method:
The sample volumes were adjusted by the total protein amount. Protein assay was performed by Bio-Rad Protein Assay (Bio-Rad Laboratories, Inc. Hercules, Calif.). The samples were resolved by the standard SDS-polyacrylamide gel electrophoresis and transferred to nitrocellulose membrane (Amersham Biosciences, Bjorkgatan, Sweden). The membranes were blocked with skim milk, and incubated with primary antibodies at 4° C. overnight and then with secondary antibody conjugated with horse radish peroxidase at room temperature for 2 hrs. The signals were detected by western blot chemiluminescence reagent plus (New England Nuclear Life Science Products, Boston, Mass.). BNIP3 is a member of Bcl-2 family proteins which sends pro-apoptotic signal to mitochondria and induces mitochondrial membrane potential depolarization. […] This implies that BNIP3 is involved in autophagy as well as cell death. […] Since BNIP3 is known to be activated more under hypoxic conditions (24), BNIP3 expression was examined in both normoxic and hypoxic conditions (FIGS. 3A&B). […] Previously it was shown that BNIP3 expression is augmented by hypoxia through both […] (HIF)1α-dependent and nondependent pathways (24).

Assay [4] relates to LC3B. Description: Immunocytochemistry of LC3B (autophagosomes) in LNCaP cells. The settings on record: 6 hrs, Baflomycin A1 (100 nM), control cells and cells under combination treatments, M4N 80 μM. An excerpt: […] After permeabilized by 0.2% Tryton X-100 and 1% goat serum diluted in PBS (−), the cells were blocked by PBS (−) containing 5% goat serum.
Assay [5] concerns caspase-7. Description: Western blotting of caspase-7 cleavage in HepG2 cells. The following applies: HepG2, 17 hrs; M4N 80 μM, etoposide 20 μM, rapamycin 20 μM, UCN-01 5 μM. How it is done: as §1
The effect of the combination treatments on cell death and autophagy was examined in two cell lines other than LNCaP cells.

As for `COc1ccc(C[C@@H](C)[C@@H](C)Cc2ccc(OC)c(OC)c2)cc1OC` [M4N, Tetra-O-methyl nordihyroguaiaretic acid], in assay [1], the BNIP3 protein expression entry is listed as “blocks BNIP3 protein expression”. In addition, in assay [2], the “net LC3B-II formation (net autophagic activity)” value is reported as “almost totally suppressed”. Also, the Beclin-1 expression result in assay [3] was “not affected”. Also, in assay [4], the “net amount of autophagosomes (LC3B staining)” value is “reduced the net amount of autophagosomes”.

For `CN[C@@H]1C[C@H]2O[C@@](C)([C@@H]1OC)n1c3ccccc3c3c4c(c5c6ccccc6n2c5c31)C(=O)N[C@H]4O` [UCN-01, 7-hydroxystaurosporine], in assay [5], the caspase-7 cleavage product result was “great deal”.
